Molecules are shown by their SMILES. Peptide text beside a SMILES is read from it. * marks the point of attachment. X1 = CC(C)C[C@H]1C(=O)NCN1*

Test [1] has as its target Kappa-type opioid receptor (Rattus norvegicus, UniProt P34975). Briefly: Binding affinity towards Opioid receptor kappa 1 was determined using U69,593 as the radioligand.
Test [2] has as its target Mu-type opioid receptor (Rattus norvegicus, UniProt P33535).

Chain of Mu-type opioid receptor (P33535 whole entry): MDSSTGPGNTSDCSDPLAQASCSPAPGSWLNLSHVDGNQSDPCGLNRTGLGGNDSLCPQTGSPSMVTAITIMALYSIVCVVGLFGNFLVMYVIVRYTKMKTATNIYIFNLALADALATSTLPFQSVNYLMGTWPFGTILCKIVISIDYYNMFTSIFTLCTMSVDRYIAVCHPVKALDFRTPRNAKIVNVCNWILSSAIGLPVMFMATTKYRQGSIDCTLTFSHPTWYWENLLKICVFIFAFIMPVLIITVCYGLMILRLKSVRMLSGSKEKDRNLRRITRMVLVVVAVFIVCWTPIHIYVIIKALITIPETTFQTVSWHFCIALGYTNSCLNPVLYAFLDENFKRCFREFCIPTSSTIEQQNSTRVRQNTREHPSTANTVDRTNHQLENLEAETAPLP
Chain of Kappa-type opioid receptor (P34975 whole entry): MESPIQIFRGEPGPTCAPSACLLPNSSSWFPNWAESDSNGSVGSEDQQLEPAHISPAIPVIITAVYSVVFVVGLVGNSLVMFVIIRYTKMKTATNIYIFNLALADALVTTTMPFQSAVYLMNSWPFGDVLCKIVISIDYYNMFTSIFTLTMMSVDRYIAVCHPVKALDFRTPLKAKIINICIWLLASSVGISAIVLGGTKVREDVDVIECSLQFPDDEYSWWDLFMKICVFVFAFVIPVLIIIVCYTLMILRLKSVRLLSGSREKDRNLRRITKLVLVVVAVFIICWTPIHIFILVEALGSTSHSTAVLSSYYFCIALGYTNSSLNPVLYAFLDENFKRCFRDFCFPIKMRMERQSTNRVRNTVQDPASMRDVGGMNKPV

For the molecule `CC(C)C[C@@H](C(N)=O)N1CN(C(=O)CNC(=O)CNC(=O)[C@@H](N)Cc2ccc(O)cc2)[C@@H](Cc2ccccc2)C1=O`, the Ki (usually the dissociation constant of the complex between target and ligand, obtained from inhibition or displacement) is greater than 10000 nM in test [1] and 2560 nM in test [2].

`CC(C)C[C@H](NC(=O)[C@H](Cc1ccccc1)NC(=O)CNC(=O)CN1CN[C@@H](Cc2ccc(O)cc2)C1=O)C(N)=O`: the results for the Ki in test [1] and in test [2] were greater than 10000 nM and 547 nM, respectively.

Take `CC(C)C[C@H]1C(=O)NCN1C(=O)[C@H](Cc1ccccc1)NC(=O)CNC(=O)CNC(=O)[C@@H](N)Cc1ccc(O)cc1` (H-YGGF-X1): the Ki in test [1] was determined as 2890 nM; in test [2], 4 nM.

In the case of `CNC(=O)[C@H](CC(C)C)NC(=O)[C@H](Cc1ccccc1)NC(=O)CNC(=O)CNC(=O)[C@@H](N)Cc1ccc(O)cc1`, the results for the Ki in test [1] and in test [2] were 1370 nM and 145 nM, respectively.

As for `CNC(=O)[C@H](CC(C)C)N(C)C(=O)[C@H](Cc1ccccc1)NC(=O)CNC(=O)CNC(=O)[C@@H](N)Cc1ccc(O)cc1`, the Ki in test [1] came out at 1690 nM; in test [2], 28 nM.

In the case of `CC(C)C[C@@H](C(N)=O)N(C)C(=O)[C@H](Cc1ccccc1)NC(=O)CNC(=O)CNC(=O)[C@@H](N)Cc1ccc(O)cc1`, the results for the Ki in test [1] and in test [2] were 2230 nM and 46 nM, respectively.

Take `CC(C)C[C@H](NC(=O)[C@H](Cc1ccccc1)N1CN(C(=O)CNC(=O)[C@@H](N)Cc2ccc(O)cc2)CC1=O)C(N)=O`: the Ki was greater than 10000 nM in test [1] and 236 nM in test [2].

`CC(C)C[C@H](NC(=O)[C@H](Cc1ccccc1)NC(=O)CN1CN(C(=O)[C@@H](N)Cc2ccc(O)cc2)CC1=O)C(N)=O`: the Ki in test [1] was greater than 10000 nM; in test [2] it was 92 nM.

These data come from ChEMBL document CHEMBL1135954, “Opioid activity of 4-imidazolidinone positional analogues of Leu-Enkephalin” (Bioorg Med Chem Lett, 2002).
